This note sets out measurements from patent US8962674B2 (Tokyo Institute of Technology, priority 2006, dated 2015).

The melting point is the temperature of the solid-liquid transition. The compound `COc1cccc(/C=C/C(=O)CC(=O)/C=C/c2ccc(O)cc2)c1OC` [CU069, (1E,6E)-1-(2,3-dimethoxyphenyl)-7-(4-hydroxyphenyl)hepta-1,6-diene-3,5-dione] registered a melting point of 70 to 72 °C.

`COc1cc(/C=C/C(=O)CC(=O)/C=C/c2cccc(OC)c2OC)ccc1O` [CU070, (1E,6E)-1-(2,3-dimethoxyphenyl)-7-(4-hydroxy-3-methoxyphenyl)hepta-1,6-diene-3,5-dione]: the melting point is 57 to 65 °C.

Compound `COc1ccc(/C=C/C(=O)CC(=O)/C=C/c2cccc(OC)c2OC)cc1O` [CU071, (1E,6E)-1-(2,3-dimethoxyphenyl)-7-(3-hydroxy-4-methoxyphenyl)hepta-1,6-diene-3,5-dione] had a melting point of 144 to 148 °C.

`COc1ccc(/C=C/C(=O)CC(=O)/C=C/c2ccc(O)cc2)c(OC)c1` [CU072, (1E,6E)-1-(2,4-dimethoxyphenyl)-7-(4-hydroxyphenyl)hepta-1,6-diene-3,5-dione] had a melting point of 161 to 167 °C.

Compound `COc1ccc(/C=C/C(=O)CC(=O)/C=C/c2ccc(O)c(OC)c2)c(OC)c1` [CU073, (1E,6E)-1-(2,4-dimethoxyphenyl)-7-(4-hydroxy-3-methoxyphenyl)hepta-1,6-diene-3,5-dione] displayed a melting point of 108 to 113 °C.

In turn, `COc1ccc(/C=C/C(=O)CC(=O)/C=C/c2ccc(OC)c(O)c2)c(OC)c1` [CU074, (1E,6E)-1-(2,4-dimethoxyphenyl)-7-(3-hydroxy-4-methoxyphenyl)hepta-1,6-diene-3,5-dione] returned a melting point of 64 to 70 °C.

Take `COc1ccc(OC)c(/C=C/C(=O)CC(=O)/C=C/c2ccc(O)cc2)c1` [CU075, (1E,6E)-1-(2,5-dimethoxyphenyl)-7-(4-hydroxyphenyl)hepta-1,6-diene-3,5-dione]: the melting point fell in the range of 70 to 74 °C.

Regarding `COc1ccc(OC)c(/C=C/C(=O)CC(=O)/C=C/c2ccc(O)c(OC)c2)c1` [CU076, (1E,6E)-1-(2,5-dimethoxyphenyl)-7-(4-hydroxy-3-methoxyphenyl)hepta-1,6-diene-3,5-dione], the melting point lay in the range of 127 to 129 °C.

Consider `COc1ccc(OC)c(/C=C/C(=O)CC(=O)/C=C/c2ccc(OC)c(O)c2)c1` [CU077, (1E,6E)-1-(2,5-dimethoxyphenyl)-7-(3-hydroxy-4-methoxyphenyl)hepta-1,6-diene-3,5-dione], for which the melting point was in the range of 63 to 68 °C.

`COc1cc(/C=C/C(=O)CC(=O)/C=C/c2cccc(O)c2)ccc1O` [CU079, (1E,6E)-1-(4-hydroxy-3-methoxyphenyl)-7-(3-hydroxyphenyl)hepta-1,6-diene-3,5-dione] showed a melting point of 74 to 80 °C.

Turning to `COc1ccc(/C=C/C(=O)CC(=O)/C=C/c2cccc(O)c2)cc1O` [CU081, (1E,6E)-1-(3-hydroxy-4-methoxyphenyl)-7-(3-hydroxyphenyl)hepta-1,6-diene-3,5-dione], the melting point lay in the range of 200 to 206 °C.

For `COc1cc(/C=C/C(=O)CC(=O)/C=C/c2ccccc2O)ccc1O` [CU082, (1E,6E)-1-(4-hydroxy-3-methoxyphenyl)-7-(2-hydroxyphenyl)hepta-1,6-diene-3,5-dione], the melting point is 77 to 83 °C.

On to `COc1cc(O)ccc1/C=C/C(=O)CC(=O)/C=C/c1ccc(O)cc1` [CU083, (1E,6E)-1-(4-hydroxyphenyl)-7-(4-hydroxy-2-methoxyphenyl)hepta-1,6-diene-3,5-dione], for which the melting point was in the range of 105 to 110 °C.

With `COc1ccc(/C=C/C(=O)CC(=O)/C=C/c2ccccc2O)cc1O` [CU084, (1E,6E)-1-(2-hydroxyphenyl)-7-(3-hydroxy-4-methoxyphenyl)hepta-1,6-diene-3,5-dione], the melting point lay in the range of 90 to 96 °C.

Turning to `COc1cc(/C=C/C(=O)CC(=O)/C=C/c2ccc(O)cc2OC)ccc1O` [CU085, (1E,6E)-1-(4-hydroxy-2-methoxyphenyl)-7-(4-hydroxy-3-methoxyphenyl)hepta-1,6-diene-3,5-dione], the melting point was 203 to 208 °C.

The compound `COc1ccc(/C=C/C(=O)CC(=O)/C=C/c2ccc(O)cc2OC)cc1O` [CU086, (1E,6E)-1-(4-hydroxy-2-methoxyphenyl)-7-(3-hydroxy-4-methoxyphenyl)hepta-1,6-diene-3,5-dione] yielded a melting point of 90 to 95 °C.

Turning to `COc1ccc(O)c(/C=C/C(=O)CC(=O)/C=C/c2ccc(O)c(OC)c2)c1` [CU088, (1E,6E)-1-(2-hydroxy-5-methoxyphenyl)-7-(4-hydroxy-3-methoxyphenyl)hepta-1,6-diene-3,5-dione], the melting point was 78 to 80 °C.

As for `COc1ccc(O)c(/C=C/C(=O)CC(=O)/C=C/c2ccc(OC)c(O)c2)c1` [CU089, (1E,6E)-1-(2-hydroxy-5-methoxyphenyl)-7-(3-hydroxy-4-methoxyphenyl)hepta-1,6-diene-3,5-dione], the melting point lay within 80 to 86 °C.

As for `O=C(/C=C/c1ccc(O)cc1)CC(=O)/C=C/c1cc(O)ccc1O` [CU090, (1E,6E)-1-(2,5-dihydroxyphenyl)-7-(4-hydroxyphenyl)hepta-1,6-diene-3,5-dione], the melting point was in the range of 133 to 140 °C.

In turn, `COc1ccc(/C=C/C(=O)CC(=O)/C=C/c2cc(O)ccc2O)cc1O` [CU091, (1E,6E)-1-(2,5-dihydroxyphenyl)-7-(3-hydroxy-4-methoxyphenyl)hepta-1,6-diene-3,5-dione] came in with a melting point of 115 to 121 °C.

On to `COc1cc(/C=C/C(=O)CC(=O)/C=C/c2cc(O)cc(O)c2)ccc1O` [CU093, (1E,6E)-1-(3,5-dihydroxyphenyl)-7-(4-hydroxy-3-methoxyphenyl)hepta-1,6-diene-3,5-dione], for which the melting point was 85 to 90 °C.

For the compound `COc1cc(/C=C/C(=O)CC(=O)/C=C/c2cccc(O)c2O)ccc1O` [CU096, (1E,6E)-1-(2,3-dihydroxyphenyl)-7-(4-hydroxy-3-methoxyphenyl)hepta-1,6-diene-3,5-dione], the melting point lay within 82 to 89 °C.

Consider `COc1cc(/C=C/C(=O)CC(=O)/C=C/c2ccc(O)cc2)cc(OC)c1` [CU099, (1E,6E)-1-(3,5-dimethoxyphenyl)-7-(4-hydroxyphenyl)hepta-1,6-diene-3,5-dione], for which the melting point was 75 to 80 °C.

Compound `COc1cc(/C=C/C(=O)CC(=O)/C=C/c2ccc(O)c(OC)c2)cc(OC)c1` [CU100, (1E,6E)-1-(3,5-dimethoxyphenyl)-7-(4-hydroxy-3-methoxyphenyl)hepta-1,6-diene-3,5-dione] yielded a melting point of 50 to 55 °C.

Take `COc1cc(/C=C/C(=O)CC(=O)/C=C/c2ccc(OC)c(O)c2)cc(OC)c1` [CU101, (1E,6E)-1-(3,5-dimethoxyphenyl)-7-(3-hydroxy-4-methoxyphenyl)hepta-1,6-diene-3,5-dione]: the melting point lay in the range of 187 to 193 °C.

Regarding `COc1cccc(OC)c1/C=C/C(=O)CC(=O)/C=C/c1ccc(O)cc1` [CU102, (1E,6E)-1-(2,6-dimethoxyphenyl)-7-(4-hydroxyphenyl)hepta-1,6-diene-3,5-dione], the melting point was 165 to 170 °C.

The compound `COc1cc(/C=C/C(=O)CC(=O)/C=C/c2c(OC)cccc2OC)ccc1O` [CU103, (1E,6E)-1-(2,6-dimethoxyphenyl)-7-(4-hydroxy-3-methoxyphenyl)hepta-1,6-diene-3,5-dione] showed a melting point of 136 to 139 °C.

The compound `COc1ccc(/C=C/C(=O)CC(=O)/C=C/c2ccc(O)c(OC)c2)cc1O` [CU105, (1E,6E)-1-(3-hydroxy-4-methoxyphenyl)-7-(4-hydroxy-3-methoxyphenyl)hepta-1,6-diene-3,5-dione] came in with a melting point of 78 to 85 °C.

`COc1cc(/C=C/C(=O)CC(=O)/C=C/c2cc(O)ccc2O)ccc1O` [CU106, (1E,6E)-1-(2,5-dihydroxyphenyl)-7-(4-hydroxy-3-methoxyphenyl)hepta-1,6-diene-3,5-dione] yielded a melting point of 125 to 130 °C.

For `CCn1c2ccccc2c2cc(/C=C/C(=O)CC(=O)/C=C/c3ccc(OC)c(O)c3)ccc21` [CU108, (1E,6E)-1-(9-ethyl-9H-carbazol-3-yl)-7-(3-hydroxy-4-methoxyphenyl)hepta-1,6-diene-3,5-dione], the melting point is 100 to 103 °C.

On to `COc1ccc(/C=C/C(=O)CC(=O)/C=C/c2c(OC)ccc3ccccc23)cc1O` [CU117, (1E,6E)-1-(3-hydroxy-4-methoxyphenyl)-7-(2-methoxynaphthalen-1-yl)hepta-1,6-diene-3,5-dione], for which the melting point lay in the range of 150 to 155 °C.

With `COc1cc(/C=C/C(=O)CC(=O)/C=C/c2ccc(OC)c3ccccc23)ccc1O` [CU118, (1E,6E)-1-(4-hydroxy-3-methoxyphenyl)-7-(4-methoxynaphthalen-1-yl)hepta-1,6-diene-3,5-dione], the melting point was 193 to 196 °C.

In turn, `CN(C)c1ccc(/C=C/C(=O)CC(=O)/C=C/c2ccc(O)cc2)c2ccccc12` [CU119, (1E,6E)-1-(4-dimethylaminonaphthalen-1-yl)-7-(4-hydroxyphenyl)hepta-1,6-diene-3,5-dione] showed a melting point of 82 to 86 °C.

`Cn1cccc1/C=C/C(=O)CC(=O)/C=C/c1ccc(O)cc1` [CU120, (1E,6E)-1-(4-hydroxyphenyl)-7-(1-methyl-1H-pyrrol-2-yl)hepta-1,6-diene-3,5-dione] gave a melting point of 169 to 173 °C.

As to `Cn1cc(/C=C/C(=O)CC(=O)/C=C/c2ccc(O)cc2)c2ccccc21` [CU123, (1E,6E)-1-(4-hydroxyphenyl)-7-(1-methyl-1H-indol-3-yl)hepta-1,6-diene-3,5-dione], the melting point lay in the range of 185 to 190 °C.

As for `COc1cc(/C=C/C(=O)CC(=O)/C=C/c2cn(C)c3ccccc23)ccc1O` [CU124, (1E,6E)-1-(4-hydroxy-3-methoxyphenyl)-7-(1-methyl-1H-indol-3-yl)hepta-1,6-diene-3,5-dione], the melting point lay within 173 to 175 °C.

Consider `COc1ccc(/C=C/C(=O)CC(=O)/C=C/c2cn(C)c3ccccc23)cc1O` [CU125, (1E,6E)-1-(3-hydroxy-4-methoxyphenyl)-7-(1-methyl-1H-indol-3-yl)hepta-1,6-diene-3,5-dione], for which the melting point lay in the range of 162 to 166 °C.

Compound `Cn1c(/C=C/C(=O)CC(=O)/C=C/c2ccc(O)cc2)cc2ccccc21` [CU126, (1E,6E)-1-(4-hydroxyphenyl)-7-(1-methyl-1H-indol-2-yl)hepta-1,6-diene-3,5-dione] showed a melting point of 208 to 213 °C.
